From patent publication US12202840B2, “Compounds for the treatment or alleviation of disorders associated with Tau aggregates” (AC Immune SA, priority 2018, dated 2025)

Experiments:
[1] = biological target: T1, flTau aggregates (longest isoform of human Tau, 2N4R; 441 amino acids) (Homo sapiens, UniProt P10636); test: Full-length Tau (flTau) disaggregation assay by Thioflavin T (ThT); assay type: biochemical; settings: 2 μM flTau aggregates, 160 to 0.04 μM compound, 30 minutes RT, ThT fluorescence
T1 construct: 35 μM of recombinant full-length (fl)Tau in PBS were aggregated for 24 hours; made in house; host or cells: bacteria
Method: Biological Assay Description Full-Length Tau (flTau) Disaggregation Assay by Thioflavin T (ThT)
The longest isoform of human Tau (2N4R; 441 amino acids) was expressed in bacteria and purified. For the Tau disaggregation assay by ThT, 35 μM of recombinant full-length (fl)Tau in PBS were aggregated for 24 hours at 37° C. in presence of 50 μM of heparin (Sigma-Aldrich) and 10 mM of DTT (Sigma-Aldrich) under shaking at 750 RPM. Compounds were dissolved in anhydrous dimethyl sulfoxide (DMSO, Sigma-Aldrich) to reach a concentration of 10 mM.
(§1) flTau aggregates and serial dilutions of compounds were mixed together in PBS (volume 50 μL) to a final concentration of 2 μM of flTau aggregates and from 160 to 0.04 μM of compounds. The mixture was incubated for 30 minutes at room temperature (RT), then 40 μL of this mixture were transferred into a black 384-well plate assay (Perkin-Elmer) and mixed with 10 μL of 100 μM ThT in 250 mM glycine (both from Sigma-Aldrich) in PBS. Fluorescence (relative fluorescence units; RFU) was measured in monoplicate or duplicate on a Tecan reader (excitation: 440 nm; emission: 485 nm). Percentage of flTau disaggregation was then calculated and the halfmaximal effective concentration (EC50) was determined using GraphPad Prism version 5 (GraphPad Software) assuming a one-binding site fitting model.

[2] = biological target: T2, K18 aggregates (Tau K18 fragment, amino acids 244 to 372 of human Tau441) (Homo sapiens, UniProt P10636); test: Tau K18 disaggregation assay by ThT; assay type: biochemical; settings: 2 μM K18 aggregates, 160 to 0.04 μM compound, 30 minutes RT, ThT fluorescence; read-out: TauK18 disaggregation EC50
T2 construct: encompassing amino acids 244 to 372 of the longest isoform (2N4R) of human Tau441; host or cells: bacteria
Method: Tau K18 Disaggregation Assay by ThT
as §1, with “The Tau K18 fragment, encompassing amino acids 244 to 372 of the longest isoform (2N4R) of human Tau441, was expressed in bacteria and purified or bought from SignalChem. For the K18 disaggregation assay by ThT, 35 μM of recombinant K18 in PBS were aggregated for 24 hours at 37° C. in presence of 50 μM of heparin (Sigma-Aldrich) and 10 mM of DTT (Sigma-Aldrich) under shaking at 750 RPM. Compounds were dissolved in anhydrous dimethyl sulfoxide (DMSO, Sigma-Aldrich) to reach a concentration of 10 mM. K18 aggregates” for “flTau aggregates”, “of K18” for “of flTau”, “and half maximal” for “and the halfmaximal”

[3] = test system: human neuroblastoma cell line overexpressing the full-length form of human Tau carrying the P301L mutation; test: Reduction of intracellular Tau aggregation (AlphaLISA); assay type: cell-based; settings: compound at 5 μM, 24 h; aggregated Tau normalized to total Tau, relative to DMSO-treated cells
Method: Reduction of Intracellular Tau Aggregation
A human neuroblastoma cell line overexpressing the full-length form of human Tau carrying the P301L mutation was cultured in complete medium [DMEM-F12 4.5 g/L Glutamax (Invitrogen), 15% FBS (Biochrom), 1% Peni/Strep (Invitrogen) supplemented with 2.5 μg/ml of G418 (Sigma-Aldrich) selection antibiotic]. The day before the experiment 5×10^5 cells/well were plated in a 6 well plate in 3 mL of complete medium. The next day, cells were incubated with DMSO or a compound of the present invention at a 5 μM for additional 24 h at 37° C. After incubation, cells were trypsinized, resupsended in 100 μl of homogenization buffer [25 mM Tris-HCl pH 7.4, 150 mM NaCl, 1 mM EDTA, 1 mM EGTA containing phosphatase inhibitors (30 mM NaF, 0.2 mM Na3VO4, 1 nM Okadaic acid, 1 mM PMSF, 5 mM Na4P2O7) and protease inhibitor cocktail (Complete™, Roche)], and then physically lysed with three rapid cycles of freezing and thawing. Samples were then directly tested in the AlphaLISA assay.
Phosphorylated, aggregated, and total Tau were quantified by AlphaLisa using the following antibody pairs: • HT7-Acceptor beads+biotin (BT)-Tau13-Donor beads: Total Tau • HT7-Acceptor beads+biotin (BT)-HT7-Donor beads: Aggregated human Tau
The Tau13 (Abcam) was biotinylated using EZ-Link® NHS-PEO Solid Phase biotinylation kit (Thermo Scientific), while the HT7-biotin was from a commercial source (Thermo Scientific).
For each antibody pairs the concentration of acceptor beads and biotinylated antibodies was optimized. All samples were first tested in a dilution series in PBS in order to identify the linear range and optimal dilution for each sample and assay. For the final protocol, the following reagents were added in a 384-well white OptiPlate (Perkin Elmer): • 5 μL of test diluted sample • 20 μL of the mixture biotin-mAb acceptor beads at the following final concentrations: • HT7-BT at 1.25 nM in combination with HT7-Acc beads at 10 μg/ml • Tau13-BT at 5 nM in combination with HT7-Acc beads at 2.5 μg/ml
After incubation of this mixture at room temperature for 1 h, 25 μL of Streptavidin Donor beads (Perkin Elmer) at 25 μg/mL were added in the dark. Plates were analyzed after 30 min incubation using the EnSpire Alpha instrument and EnSpire Workstation version 3.00.
Data for aggregated Tau were normalized to total Tau and then expressed as percentage of the DMSO-treated cells.

T1 sequence (P10636 1-441 isoform P10636-8): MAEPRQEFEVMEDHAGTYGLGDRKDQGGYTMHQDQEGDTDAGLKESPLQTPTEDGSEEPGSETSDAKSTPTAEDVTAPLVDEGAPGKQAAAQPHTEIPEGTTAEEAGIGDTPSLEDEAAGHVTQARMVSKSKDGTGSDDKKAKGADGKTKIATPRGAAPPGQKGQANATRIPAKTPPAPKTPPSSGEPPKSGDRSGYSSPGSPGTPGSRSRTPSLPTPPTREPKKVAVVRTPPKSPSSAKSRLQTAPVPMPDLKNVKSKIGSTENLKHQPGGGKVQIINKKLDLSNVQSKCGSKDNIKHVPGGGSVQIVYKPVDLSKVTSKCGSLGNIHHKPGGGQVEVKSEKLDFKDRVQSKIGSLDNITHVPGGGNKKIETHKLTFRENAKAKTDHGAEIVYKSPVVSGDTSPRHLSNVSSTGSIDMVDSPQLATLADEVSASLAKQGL
T2 sequence (P10636 561-689): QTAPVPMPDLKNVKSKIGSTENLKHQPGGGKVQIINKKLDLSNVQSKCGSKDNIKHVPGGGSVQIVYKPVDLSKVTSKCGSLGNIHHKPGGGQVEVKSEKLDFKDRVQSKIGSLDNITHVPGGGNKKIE

EC50 [1]	EC50 [2]	SMILES	% Reduction of intracellular Tau aggregation [3]
< 10 µM	< 10 µM	CN(C)C1CCc2c(c3ccc(Nc4ccc5sc(N6CCC(F)CC6)nc5c4)nc3n2C)C1 (stereo not drawn) [Example 3]	++ (++ %50 < x < 25)
	< 10 µM	CN(C)C1CCc2oc3nc(Nc4ccc5sc(N6CCOCC6)nc5c4)ccc3c2C1 (stereo not drawn) [Example 5]	
< 10 µM	< 10 µM	CC(C)N1CCc2c(c3ccc(Nc4ccc5sc(N6CCC(F)CC6)nc5c4)nc3n2C)C1 [Example 6]	
	< 10 µM	CC(C)N1CCc2oc3nc(Nc4ccc5nc(N6CCOCC6)sc5c4)ccc3c2C1 [Example 7]	
	25 to 50 µM	CC(C)N1CCc2oc3nc(Nc4ccc5sc(N6CCOCC6)nc5c4)ccc3c2C1 [Example 8]	
	< 10 µM	CN(C)C1CCc2c(c3ccc(Nc4ccc5sc(N6CCOCC6)nc5c4)nc3n2C)C1 (stereo not drawn) [Example 9]	
< 10 µM	< 10 µM	CN(C)C1CCc2c(c3ccc(Nc4ccc5nc(N6CCOCC6)sc5c4)nc3n2C)C1 (stereo not drawn) [Example 10]	
< 10 µM	< 10 µM	CN(C)[C@H]1CCc2c(c3ccc(Nc4ccc5sc(N6CCOCC6)nc5c4)nc3n2C)C1 [Example 11]	
< 10 µM	< 10 µM	CN(C)[C@H]1CCc2c(c3ccc(Nc4ccc5nc(N6CCOCC6)sc5c4)nc3n2C)C1 [Example 13]	
10 to 25 µM	10 to 25 µM	CN(C)C1CCc2c(c3ccc(Nc4ccc5nc(N6CCC(F)CC6)sc5c4)nc3n2C)C1 (stereo not drawn) [Example 14]	
< 10 µM	< 10 µM	CN(C)C1CCc2c(c3ccc(Nc4ccc5sc(N6CCC[C@H](F)C6)nc5c4)nc3n2C)C1 (stereo partly drawn) [Example 15]	
< 10 µM	< 10 µM	CN(C)C1CCc2c(c3ccc(Nc4ccc5sc(N6CCC[C@@H](F)C6)nc5c4)nc3n2C)C1 (stereo partly drawn) [Example 16]	
25 to 50 µM		CN(C)[C@@H]1CCc2c(c3ccc(Nc4ccc5nc(N6CCOCC6)oc5c4)nc3n2C)C1 [Example 17]	
25 to 50 µM	10 to 25 µM	CN(C)[C@@H]1CCc2c(c3ccc(Nc4ccc5oc(N6CCOCC6)nc5c4)nc3n2C)C1 [Example 18]	
10 to 25 µM	10 to 25 µM	CN(C)[C@@H]1CCc2c(c3ccc(Nc4ccc5nc(N6CCC[C@@H](F)C6)oc5c4)nc3n2C)C1 [Example 19]	
	25 to 50 µM	CN(C)C1CCc2oc3nc(Nc4ccc5nc(N6CCOCC6)sc5c4)ccc3c2C1 (stereo not drawn) [Example 20]	
	10 to 25 µM	CN(C)[C@H]1CCc2oc3nc(Nc4ccc5nc(N6CCOCC6)sc5c4)ccc3c2C1 [Example 21]	
	25 to 50 µM	CN(C)[C@@H]1CCc2oc3nc(Nc4ccc5nc(N6CCOCC6)sc5c4)ccc3c2C1 [Example 22]	
	10 to 25 µM	CN(C)C1CCc2oc3nc(Nc4ccc5nc(N6CCOCC6)oc5c4)ccc3c2C1 (stereo not drawn) [Example 28]	
< 10 µM		CN(C)C1CCc2[nH]c3nc(Nc4ccc5nc(N6CCOCC6)sc5c4)ccc3c2C1 (stereo not drawn) [Example 29]	
< 10 µM		CN(C)C1CCc2[nH]c3nc(Nc4ccc5oc(N6CCOCC6)nc5c4)ccc3c2C1 (stereo not drawn) [Example 30]	
< 10 µM	10 to 25 µM	CN(C)C1CCc2oc3nc(Nc4ccc5oc(N6CCOCC6)nc5c4)ccc3c2C1 (stereo not drawn) [Example 31]	
10 to 25 µM		CN(C)C1CCc2[nH]c3nc(Nc4ccc5nc(N6CCOCC6)oc5c4)ccc3c2C1 (stereo not drawn) [Example 32]	
	< 10 µM	CN(C)[C@@H]1CCc2oc3nc(Nc4ccc5sc(N6CCOCC6)nc5c4)ccc3c2C1 [Example 33]	
	< 10 µM	CN(C)[C@H]1CCc2oc3nc(Nc4ccc5sc(N6CCOCC6)nc5c4)ccc3c2C1 [Example 34]	
	< 10 µM	CN(C)[C@H]1CCc2oc3nc(Nc4ccc5oc(N6CCOCC6)nc5c4)ccc3c2C1 [Example 35]	
	10 to 25 µM	CN(C)[C@@H]1CCc2oc3nc(Nc4ccc5oc(N6CCOCC6)nc5c4)ccc3c2C1 [Example 36]	
